Experimental data from US11517598B2 (priority 2016, dated 2022).
“Also recorded” adds a separate entry of the source. Where two headings read alike, the source gives them in different places.

Tests used:
[1] = tested on: oncolytic VSVΔ51 in 786-0 renal carcinoma cells
[2] = tested on: CT26WT, 4T1, DBT, and Pan02 tumors; details: mouse, in vivo
[3] = tested on: Measles virus in 786-0 cells; assay type: cell-based, human
[4] = tested on: VSVwt in 786-0 cells; assay type: cell-based, human
[5] = tested on: VSVΔ51 matrix (M) mRNA in CT26-WT colon cancer cells; assay type: cell-based, mouse
[6] = tested on: IFITM1; assay type: cell-based, human
Chain of IFITM1 (P13164 whole entry): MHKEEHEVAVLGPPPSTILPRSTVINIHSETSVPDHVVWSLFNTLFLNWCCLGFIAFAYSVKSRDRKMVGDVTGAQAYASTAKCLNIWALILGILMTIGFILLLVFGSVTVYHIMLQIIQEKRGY

[7] = tested on: VSVΔ51 in GM38 fibroblasts; assay type: cell-based, human
[8] = tested on: VSVΔ51 matrix (M) mRNA in 786-0 cells; assay type: cell-based, human
[9] = tested on: VSVΔ51-GFP in normal lung, muscle and spleen tissue cores; assay type: cell-based, mouse
[10] = tested on: cytokine, chemokine and IFN stimulated gene expression in 786-0 cells; assay type: cell-based, human
[11] = tested on: STAT2; assay type: cell-based, human
[12] = tested on: STAT1; assay type: cell-based, human
[13] = tested on: various human and rodent cancer cell lines
[14] = tested on: CT26-LacZ tumors; details: mouse, in vivo
[15] = mouse, in vivo
[16] = tested on: CT26WT tumors; details: mouse
[17] = tested on: HSV-1 (mutant N212) in 786-0 cells; assay type: cell-based, human
[18] = tested on: bilateral DBT tumors; details: mouse, in vivo
[19] = tested on: Sindbis virus in 786-0 cells; assay type: cell-based, human
[20] = tested on: VSVΔ51-GFP in CT26WT and DBT tumor cores; assay type: cell-based, mouse
[21] = tested on: CXCL9 in various human cancer cell lines; assay type: cell-based

In the case of `CC(=O)N[C@@H](CS)C(=O)O` [NAC, N-acetyl-L-cysteine, reference compound], the “effect of NAC on vanadate-enhanced viral spread (viral titer)” value [1] is reported as “did not abrogate vanadate's capacity to enhance viral spread”.

In the case of Ammonium metavanadate, the “VSVΔ51 growth (viral titer, GFP positive cell counts)” value [1] is reported as “effectively enhanced VSVΔ51 growth”.

In the case of Bis(maltolato) oxovanadium(IV) [BMOV], the “VSVΔ51 growth (viral titer, GFP positive cell counts)” value [1] is reported as “effectively enhanced VSVΔ51 growth”.

For “Chromium(VI) oxide [Chromium trioxide, reference compound]”, the “VSVΔ51 growth (viral titer)” value [1] was “did enhance viral growth but only at a single dose tested” and the “toxicity (not shown)” value [1] was “highly toxic in comparison to orthovanadate”.

In the case of Sodium orthovanadate, the “effect on viral growth when given post infection” value [1] is reported as “close to nil”, the “impact on viral growth with pre-treatment time” value [1] is reported as “increasingly evident with increasing pre-treatment time” and the “number of virus-infected cells (GFP)” value [1] is reported as “marked increase in the number of virus-infected cells”. For the same compound, the “pro-viral activity with metal chelating agent” value [1] was “abrogated upon inclusion of L-Ascorbic Acid”, the “viral output (viral titer by plaque assay)” value [1] was “significantly increase viral output” and the “virus-enhancing activity at different pH (protonation state)” value [1] was “had no impact on its activity”. The “yield of VSVΔ51 in single and multi-step growth curves” value [1] was “more robustly enhanced the yield of VSVΔ51 when provided at low multiplicity of infection (MOI) compared to high MOI”, the “survival, combination with VSVΔ51” value [2] was “significantly improved survival; also recorded: significantly prolonged over virus alone” and the “virus-associated luciferase gene expression (IVIS)” value [2] was “robustly enhanced virus-associated luciferase gene expression”. For the same compound, the “yield of Measles virus” value [3] was “improved”, the wtVSV yield [4] was “modest improvements in wtVSV yield” and the “VSVΔ51 matrix (M) protein mRNA and/or viral genomes” value [5] was “increased the production of VSVΔ51 matrix (M) protein mRNA and/or viral genomes”. The “protein expression levels of IFITM1” value [6] was “potently repressed”, the “VSVΔ51 viral growth in normal cells” value [7] was “viral growth was not enhanced” and the “VSVΔ51 matrix (M) protein mRNA and/or viral genomes” value [8] was “increased the production of VSVΔ51 matrix (M) protein mRNA and/or viral genomes”. For the same compound, the “growth of VSVΔ51-GFP in normal tissue cores (fluorescence)” value [9] was “not in normal tissue cores”, the “gene set-enrichment (GOrilla), compound alone” value [10] was “induced inflammatory responses, and immune system processes” and the “IFNβ-induced phosphorylation of STAT2” value [11] was “inhibited the IFNβ-induced phosphorylation of STAT2”. For the same compound, the STAT2 nuclear accumulation [11] was “reduced its nuclear accumulation”, the “localisation of STAT-2 (immunofluorescence)” value [11] was “remained mostly in the cytoplasm” and the “IFN-β induced phosphorylation of STAT1” value [12] was “not altered by treatment with vanadate”. For the same compound, the “IFNβ-induced STAT1 phosphorylation and nuclear accumulation” value [12] was “did not similarly affect STAT1”, the “localisation of activated STAT1 (immunofluorescence)” value [12] was “translocated to the nucleus” and the “phosphorylation of STAT1 at baseline” value [12] was “increased by vanadate at baseline”. For the same compound, the “cytotoxicity (cell viability) with VSVΔ51 co-infection” value [13] was “A similar effect”, the “enhancing effect on survival” value [14] was “completely abrogated” and the toxicity [15] was “evidence of toxicity was observed”. For the same compound, the toxicity ([15]; pH 7) was “greatly reduced”, the “T-cells within the tumor” value ([16]; in vivo) was “increased accumulation of T-cells within the tumor” and the “re-challenge of cured mice with the same cancer cells” value ([16]; in vivo) was “became immune to re-challenge”. The “in vivo virus-enhancing activity at pH 7” value ([16]; pH 7) was “retained its activity”, the HSV-1 growth [17] was “robustly inhibited” and the “tumor regression with monotherapy” value [18] was “some tumors did regress”. The virus-associated luminescence [18] was “uniquely enhanced by vanadate in the injected tumors on the right side”, the “yield of Sindbis virus” value [19] was “improved” and the “growth of VSVΔ51-GFP in tumor cores (fluorescence)” value [20] was “robustly increased the growth of the virus in tumor cores”. For the same compound, the “CXCL9 secretion (ELISA)” value [21] was “vanadate-mediated increase”.

In the case of Tungsten [reference compound], the “VSVΔ51 growth (viral titer, GFP positive cell counts)” value [1] is reported as “neither Manganese, Molybdene, or Tungsten oxide salts could enhance VSVΔ51 growth”.

With Vanadium(IV) oxide sulfate hydrate [VS] the “VSVΔ51 growth (viral titer, GFP positive cell counts)” value [1] was “effectively enhanced VSVΔ51 growth”.

For Vanadium(V) oxytriethoxide [VOx], the “VSVΔ51 growth (viral titer, GFP positive cell counts)” value [1] was “effectively enhanced VSVΔ51 growth”.

In the case of “potassium permanganate [Manganese, reference compound]”, the “VSVΔ51 growth (viral titer, GFP positive cell counts)” value [1] is reported as “neither Manganese, Molybdene, or Tungsten oxide salts could enhance VSVΔ51 growth”.
